Test results as given in the kinase profiling compilation of Christmann-Franck et al. (2016).

Key:
Assay in all cases: KINOMEscan competition binding
Conditions in all cases: compound 10.0 µM
PRKACA (human) = PRKACA (human) (UniProt P17612)
CSF1R (human) = CSF1R (human) (UniProt P07333)
INSRR (human) = INSRR (human) (UniProt P14616)
NEK9 (human) = NEK9 (human) (UniProt Q8TD19)
[1] = molecular target: JAK2 JH1 catalytic (human) (UniProt O60674)
CSK (human) = CSK (human) (UniProt P41240)
PRKD2 (human) = PRKD2 (human) (UniProt Q9BZL6)
AKT2 (human) = AKT2 (human) (UniProt P31751)
ACVR2A (human) = ACVR2A (human) (UniProt P27037)
PRKAA2 (human) = PRKAA2 (human) (UniProt P54646)
SRPK3 (human) = SRPK3 (human) (UniProt Q9UPE1)
MYO3A (human) = MYO3A (human) (UniProt Q8NEV4)
STK39 (human) = STK39 (human) (UniProt Q9UEW8)
MAPK14 (human) = MAPK14 (human) (UniProt Q16539)
TGFBR2 (human) = TGFBR2 (human) (UniProt P37173)
STK32A (human) = STK32A (human) (UniProt Q8WU08)
MAPKAPK5 (human) = MAPKAPK5 (human) (UniProt Q8IW41)
[2] = molecular target: JAK3 JH1 catalytic (human) (UniProt P52333)
SGK3 (human) = SGK3 (human) (UniProt Q96BR1)
PRKCQ (human) = PRKCQ (human) (UniProt Q04759)
DAPK2 (human) = DAPK2 (human) (UniProt Q9UIK4)
NEK11 (human) = NEK11 (human) (UniProt Q8NG66)
IGF1R (human) = IGF1R (human) (UniProt P08069)
TIE1 (human) = TIE1 (human) (UniProt P35590)
PRKCE (human) = PRKCE (human) (UniProt Q02156)
BMPR1B (human) = BMPR1B (human) (UniProt O00238)
ADCK3 (human) = ADCK3 (human) (UniProt Q8NI60)
SIK1 (human) = SIK1 (human) (UniProt P57059)
PRKD3 (human) = PRKD3 (human) (UniProt O94806)
TESK1 (human) = TESK1 (human) (UniProt Q15569)
PLK3 (human) = PLK3 (human) (UniProt Q9H4B4)
ICK (human) = ICK (human) (UniProt Q9UPZ9)
CDK3 (human) = CDK3 (human) (UniProt Q00526)
MAPK6 (human) = MAPK6 (human) (UniProt Q16659)
PDPK1 (human) = PDPK1 (human) (UniProt O15530)
LIMK1 (human) = LIMK1 (human) (UniProt P53667)
MAP2K6 (human) = MAP2K6 (human) (UniProt P52564)
MTOR (human) = MTOR (human) (UniProt P42345)
PIK3C2G (human) = PIK3C2G (human) (UniProt O75747)
RIOK2 (human) = RIOK2 (human) (UniProt Q9BVS4)

PRKCE (human), sequence (Q02156 whole entry, looked up): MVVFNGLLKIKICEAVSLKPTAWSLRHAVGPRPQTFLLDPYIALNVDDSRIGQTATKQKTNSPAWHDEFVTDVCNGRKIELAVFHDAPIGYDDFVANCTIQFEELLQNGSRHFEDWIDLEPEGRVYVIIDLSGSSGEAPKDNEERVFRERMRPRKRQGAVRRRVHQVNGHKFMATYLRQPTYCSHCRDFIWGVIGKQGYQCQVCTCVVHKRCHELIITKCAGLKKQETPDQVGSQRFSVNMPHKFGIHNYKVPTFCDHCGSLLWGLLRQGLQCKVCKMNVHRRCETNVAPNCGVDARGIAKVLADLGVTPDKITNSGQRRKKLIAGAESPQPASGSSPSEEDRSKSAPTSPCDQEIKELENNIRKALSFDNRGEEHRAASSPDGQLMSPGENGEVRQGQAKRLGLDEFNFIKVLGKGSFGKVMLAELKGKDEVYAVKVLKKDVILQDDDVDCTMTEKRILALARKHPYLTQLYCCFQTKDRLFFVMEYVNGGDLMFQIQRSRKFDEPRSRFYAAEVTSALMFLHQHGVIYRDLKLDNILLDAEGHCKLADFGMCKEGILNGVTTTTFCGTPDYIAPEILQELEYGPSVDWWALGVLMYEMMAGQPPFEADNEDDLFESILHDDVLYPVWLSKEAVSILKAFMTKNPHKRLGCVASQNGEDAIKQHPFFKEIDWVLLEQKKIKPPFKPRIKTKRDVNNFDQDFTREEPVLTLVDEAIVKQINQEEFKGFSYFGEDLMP
LIMK1 (human), sequence (P53667 whole entry, looked up): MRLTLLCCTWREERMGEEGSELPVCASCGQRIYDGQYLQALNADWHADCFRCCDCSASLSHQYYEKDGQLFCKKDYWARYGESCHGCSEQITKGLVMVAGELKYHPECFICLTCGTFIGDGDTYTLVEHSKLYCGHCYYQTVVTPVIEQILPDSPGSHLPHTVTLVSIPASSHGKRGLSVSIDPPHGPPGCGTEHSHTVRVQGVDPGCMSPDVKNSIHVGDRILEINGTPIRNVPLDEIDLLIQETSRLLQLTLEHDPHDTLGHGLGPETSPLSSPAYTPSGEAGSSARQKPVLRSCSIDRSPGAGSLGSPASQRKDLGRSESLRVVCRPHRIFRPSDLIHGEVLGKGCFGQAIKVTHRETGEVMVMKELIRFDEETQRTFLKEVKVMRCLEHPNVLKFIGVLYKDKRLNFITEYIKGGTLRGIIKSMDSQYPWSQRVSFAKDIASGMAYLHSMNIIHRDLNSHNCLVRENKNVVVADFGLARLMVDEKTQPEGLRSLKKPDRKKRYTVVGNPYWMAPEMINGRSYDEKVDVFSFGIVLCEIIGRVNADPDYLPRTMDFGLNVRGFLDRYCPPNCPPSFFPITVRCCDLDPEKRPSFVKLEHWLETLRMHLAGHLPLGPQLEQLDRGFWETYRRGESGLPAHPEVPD
TESK1 (human), sequence (Q15569 whole entry, looked up): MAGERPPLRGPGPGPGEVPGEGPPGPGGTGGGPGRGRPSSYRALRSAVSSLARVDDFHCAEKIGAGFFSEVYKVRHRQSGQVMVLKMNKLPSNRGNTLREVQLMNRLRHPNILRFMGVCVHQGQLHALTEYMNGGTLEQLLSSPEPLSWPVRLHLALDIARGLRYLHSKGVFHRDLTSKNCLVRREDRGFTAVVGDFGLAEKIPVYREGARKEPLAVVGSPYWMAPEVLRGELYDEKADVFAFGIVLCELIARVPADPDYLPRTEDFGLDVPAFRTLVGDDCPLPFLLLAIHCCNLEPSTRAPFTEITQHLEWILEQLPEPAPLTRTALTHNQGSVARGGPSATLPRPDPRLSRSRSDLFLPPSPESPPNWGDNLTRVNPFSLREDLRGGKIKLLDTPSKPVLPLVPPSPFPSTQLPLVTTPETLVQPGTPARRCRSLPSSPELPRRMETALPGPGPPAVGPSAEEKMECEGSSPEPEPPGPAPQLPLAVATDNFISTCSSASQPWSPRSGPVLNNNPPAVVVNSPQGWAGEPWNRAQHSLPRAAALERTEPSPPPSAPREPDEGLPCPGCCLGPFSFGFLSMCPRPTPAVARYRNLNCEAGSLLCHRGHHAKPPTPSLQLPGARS
CSK (human), sequence (P41240 whole entry, looked up): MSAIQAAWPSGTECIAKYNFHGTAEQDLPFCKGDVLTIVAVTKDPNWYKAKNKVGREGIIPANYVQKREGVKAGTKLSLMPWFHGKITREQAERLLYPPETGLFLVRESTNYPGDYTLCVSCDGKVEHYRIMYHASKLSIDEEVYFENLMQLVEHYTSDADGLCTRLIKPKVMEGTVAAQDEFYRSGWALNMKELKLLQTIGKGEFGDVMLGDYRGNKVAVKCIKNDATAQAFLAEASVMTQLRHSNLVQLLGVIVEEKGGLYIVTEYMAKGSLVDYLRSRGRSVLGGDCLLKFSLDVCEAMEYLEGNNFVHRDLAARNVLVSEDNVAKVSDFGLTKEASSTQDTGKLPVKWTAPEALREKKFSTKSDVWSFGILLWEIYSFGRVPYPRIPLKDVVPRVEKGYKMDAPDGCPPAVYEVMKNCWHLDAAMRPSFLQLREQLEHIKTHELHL
TIE1 (human), sequence (P35590 whole entry, looked up): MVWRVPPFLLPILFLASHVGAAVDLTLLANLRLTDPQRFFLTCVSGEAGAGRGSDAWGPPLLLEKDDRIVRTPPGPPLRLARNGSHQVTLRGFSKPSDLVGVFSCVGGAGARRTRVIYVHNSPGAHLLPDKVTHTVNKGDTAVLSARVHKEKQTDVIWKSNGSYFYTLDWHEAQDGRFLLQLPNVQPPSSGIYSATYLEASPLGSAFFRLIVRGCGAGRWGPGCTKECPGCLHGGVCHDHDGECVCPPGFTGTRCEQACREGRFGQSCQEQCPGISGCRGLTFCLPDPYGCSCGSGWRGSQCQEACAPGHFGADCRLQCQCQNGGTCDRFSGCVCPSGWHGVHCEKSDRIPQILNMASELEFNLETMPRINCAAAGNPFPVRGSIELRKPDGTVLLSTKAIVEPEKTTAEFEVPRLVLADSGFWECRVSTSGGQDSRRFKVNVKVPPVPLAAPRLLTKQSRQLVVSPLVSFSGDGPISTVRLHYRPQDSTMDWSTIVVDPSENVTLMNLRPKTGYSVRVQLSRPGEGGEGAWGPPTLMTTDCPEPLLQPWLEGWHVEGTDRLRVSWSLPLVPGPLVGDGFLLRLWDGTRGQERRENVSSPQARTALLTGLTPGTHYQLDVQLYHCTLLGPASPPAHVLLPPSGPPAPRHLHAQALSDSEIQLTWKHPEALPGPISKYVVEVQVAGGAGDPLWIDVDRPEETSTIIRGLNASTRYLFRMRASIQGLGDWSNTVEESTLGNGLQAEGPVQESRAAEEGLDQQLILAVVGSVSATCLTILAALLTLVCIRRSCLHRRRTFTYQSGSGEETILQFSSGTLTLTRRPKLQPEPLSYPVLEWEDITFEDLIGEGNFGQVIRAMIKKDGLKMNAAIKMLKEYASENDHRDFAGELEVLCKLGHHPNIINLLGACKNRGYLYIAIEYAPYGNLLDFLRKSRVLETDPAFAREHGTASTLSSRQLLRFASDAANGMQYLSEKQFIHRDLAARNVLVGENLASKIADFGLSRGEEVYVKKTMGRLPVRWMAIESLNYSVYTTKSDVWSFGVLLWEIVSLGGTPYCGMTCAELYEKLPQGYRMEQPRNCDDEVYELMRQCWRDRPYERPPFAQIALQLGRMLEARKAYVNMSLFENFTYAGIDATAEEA
JAK2 JH1 catalytic (human), sequence (O60674 whole entry, looked up): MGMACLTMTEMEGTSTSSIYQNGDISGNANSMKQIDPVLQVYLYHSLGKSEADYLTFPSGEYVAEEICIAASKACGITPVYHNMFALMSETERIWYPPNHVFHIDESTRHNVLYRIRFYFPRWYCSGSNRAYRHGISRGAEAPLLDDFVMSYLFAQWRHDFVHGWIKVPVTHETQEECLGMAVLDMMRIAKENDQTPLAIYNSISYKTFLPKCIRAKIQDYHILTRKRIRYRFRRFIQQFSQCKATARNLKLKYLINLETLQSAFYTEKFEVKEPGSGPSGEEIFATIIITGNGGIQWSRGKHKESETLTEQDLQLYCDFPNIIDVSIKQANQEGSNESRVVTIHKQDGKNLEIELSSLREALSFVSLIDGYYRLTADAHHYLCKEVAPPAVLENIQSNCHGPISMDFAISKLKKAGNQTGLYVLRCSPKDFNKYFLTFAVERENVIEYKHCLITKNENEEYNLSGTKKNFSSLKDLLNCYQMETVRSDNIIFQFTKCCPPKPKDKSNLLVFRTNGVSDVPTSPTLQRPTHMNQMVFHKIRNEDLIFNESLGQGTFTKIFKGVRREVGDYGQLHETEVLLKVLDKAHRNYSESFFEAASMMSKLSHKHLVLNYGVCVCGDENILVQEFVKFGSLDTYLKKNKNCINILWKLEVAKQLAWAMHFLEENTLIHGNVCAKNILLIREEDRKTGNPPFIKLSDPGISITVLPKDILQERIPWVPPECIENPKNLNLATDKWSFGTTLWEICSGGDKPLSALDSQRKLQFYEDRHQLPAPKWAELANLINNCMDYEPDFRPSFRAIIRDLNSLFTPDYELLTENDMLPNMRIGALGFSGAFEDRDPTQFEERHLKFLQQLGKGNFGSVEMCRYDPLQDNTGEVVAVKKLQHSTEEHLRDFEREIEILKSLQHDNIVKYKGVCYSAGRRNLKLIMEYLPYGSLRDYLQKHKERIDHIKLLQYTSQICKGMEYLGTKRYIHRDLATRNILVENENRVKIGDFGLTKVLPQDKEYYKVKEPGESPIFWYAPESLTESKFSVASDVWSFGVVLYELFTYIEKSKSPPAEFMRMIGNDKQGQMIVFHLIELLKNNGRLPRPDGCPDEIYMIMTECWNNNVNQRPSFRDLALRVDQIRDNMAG
CDK3 (human), sequence (Q00526 whole entry, looked up): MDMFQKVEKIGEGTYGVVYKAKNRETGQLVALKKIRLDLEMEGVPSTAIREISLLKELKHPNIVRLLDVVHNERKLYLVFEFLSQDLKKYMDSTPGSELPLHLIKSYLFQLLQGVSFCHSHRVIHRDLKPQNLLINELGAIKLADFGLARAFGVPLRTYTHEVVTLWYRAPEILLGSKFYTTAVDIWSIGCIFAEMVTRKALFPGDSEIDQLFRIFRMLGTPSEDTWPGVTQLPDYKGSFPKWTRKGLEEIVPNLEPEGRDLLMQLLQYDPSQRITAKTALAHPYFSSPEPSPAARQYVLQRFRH

Compound: CCN1CCN(C(=O)Cc2ccc(Nc3ncc(F)c(Nc4ccc(C(=O)Nc5ccccc5Cl)cc4)n3)cc2)CC1
- kinase still bound, per cent of control (PRKACA (human)): 42%
- kinase still bound, per cent of control (CSF1R (human)): 6.5%
- kinase still bound, per cent of control (INSRR (human)): 63%
- kinase still bound, per cent of control (NEK9 (human)): 18%
- kinase still bound, per cent of control [1]: 76%
- kinase still bound, per cent of control (CSK (human)): 73%
- kinase still bound, per cent of control (PRKD2 (human)): 100%
- kinase still bound, per cent of control (AKT2 (human)): 95%
- kinase still bound, per cent of control (ACVR2A (human)): 2.2%
- kinase still bound, per cent of control (PRKAA2 (human)): 39%
- kinase still bound, per cent of control (SRPK3 (human)): 7.8%
- kinase still bound, per cent of control (MYO3A (human)): 100%
- kinase still bound, per cent of control (STK39 (human)): 100%
- kinase still bound, per cent of control (MAPK14 (human)): 97%
- kinase still bound, per cent of control (TGFBR2 (human)): 100%
- kinase still bound, per cent of control (STK32A (human)): 100%
- kinase still bound, per cent of control (MAPKAPK5 (human)): 100%
- kinase still bound, per cent of control [2]: 3.7%
- kinase still bound, per cent of control (SGK3 (human)): 100%
- kinase still bound, per cent of control (PRKCQ (human)): 74%
- kinase still bound, per cent of control (DAPK2 (human)): 15%
- kinase still bound, per cent of control (NEK11 (human)): 100%
- kinase still bound, per cent of control (IGF1R (human)): 46%
- kinase still bound, per cent of control (TIE1 (human)): 10%
- kinase still bound, per cent of control (PRKCE (human)): 100%
- kinase still bound, per cent of control (BMPR1B (human)): 22%
- kinase still bound, per cent of control (ADCK3 (human)): 43%
- kinase still bound, per cent of control (SIK1 (human)): 28%
- kinase still bound, per cent of control (PRKD3 (human)): 100%
- kinase still bound, per cent of control (TESK1 (human)): 44%
- kinase still bound, per cent of control (PLK3 (human)): 82%
- kinase still bound, per cent of control (ICK (human)): 100%
- kinase still bound, per cent of control (CDK3 (human)): 92%
- kinase still bound, per cent of control (MAPK6 (human)): 21%
- kinase still bound, per cent of control (PDPK1 (human)): 96%
- kinase still bound, per cent of control (LIMK1 (human)): 9.8%
- kinase still bound, per cent of control (MAP2K6 (human)): 44%
- kinase still bound, per cent of control (MTOR (human)): 20%
- kinase still bound, per cent of control (PIK3C2G (human)): 39%
- kinase still bound, per cent of control (RIOK2 (human)): 17%

Compound: C=CC(=O)Nc1cc(-n2c(=O)ccc3cnc4ccc(-c5cn[nH]c5)cc4c32)ccc1C
- kinase still bound, per cent of control (PRKACA (human)): 100%
- kinase still bound, per cent of control (CSF1R (human)): 90%
- kinase still bound, per cent of control (INSRR (human)): 100%
- kinase still bound, per cent of control (NEK9 (human)): 100%
- kinase still bound, per cent of control [1]: 16%
- kinase still bound, per cent of control (CSK (human)): 100%
- kinase still bound, per cent of control (PRKD2 (human)): 89%
- kinase still bound, per cent of control (AKT2 (human)): 87%
- kinase still bound, per cent of control (ACVR2A (human)): 76%
- kinase still bound, per cent of control (PRKAA2 (human)): 78%
- kinase still bound, per cent of control (SRPK3 (human)): 68%
- kinase still bound, per cent of control (MYO3A (human)): 94%
- kinase still bound, per cent of control (STK39 (human)): 64%
- kinase still bound, per cent of control (MAPK14 (human)): 97%
- kinase still bound, per cent of control (TGFBR2 (human)): 82%
- kinase still bound, per cent of control (STK32A (human)): 100%
- kinase still bound, per cent of control (MAPKAPK5 (human)): 78%
- kinase still bound, per cent of control [2]: 0%
- kinase still bound, per cent of control (SGK3 (human)): 96%
- kinase still bound, per cent of control (PRKCQ (human)): 100%
- kinase still bound, per cent of control (DAPK2 (human)): 57%
- kinase still bound, per cent of control (NEK11 (human)): 100%
- kinase still bound, per cent of control (IGF1R (human)): 100%
- kinase still bound, per cent of control (TIE1 (human)): 100%
- kinase still bound, per cent of control (PRKCE (human)): 100%
- kinase still bound, per cent of control (BMPR1B (human)): 73%
- kinase still bound, per cent of control (ADCK3 (human)): 91%
- kinase still bound, per cent of control (SIK1 (human)): 77%
- kinase still bound, per cent of control (PRKD3 (human)): 98%
- kinase still bound, per cent of control (TESK1 (human)): 54%
- kinase still bound, per cent of control (PLK3 (human)): 99%
- kinase still bound, per cent of control (ICK (human)): 67%
- kinase still bound, per cent of control (CDK3 (human)): 100%
- kinase still bound, per cent of control (MAPK6 (human)): 95%
- kinase still bound, per cent of control (PDPK1 (human)): 100%
- kinase still bound, per cent of control (LIMK1 (human)): 100%
- kinase still bound, per cent of control (MAP2K6 (human)): 53%
- kinase still bound, per cent of control (MTOR (human)): 0%
- kinase still bound, per cent of control (PIK3C2G (human)): 5.9%
- kinase still bound, per cent of control (RIOK2 (human)): 12%

Compound: COc1cc2ncnc(-n3nc(-c4ccccn4)nc3N)c2cc1OC
- kinase still bound, per cent of control (PRKACA (human)): 100%
- kinase still bound, per cent of control (CSF1R (human)): 52%
- kinase still bound, per cent of control (INSRR (human)): 100%
- kinase still bound, per cent of control (NEK9 (human)): 2.2%
- kinase still bound, per cent of control [1]: 26%
- kinase still bound, per cent of control (CSK (human)): 43%
- kinase still bound, per cent of control (PRKD2 (human)): 65%
- kinase still bound, per cent of control (AKT2 (human)): 42%
- kinase still bound, per cent of control (ACVR2A (human)): 66%
- kinase still bound, per cent of control (PRKAA2 (human)): 27%
- kinase still bound, per cent of control (SRPK3 (human)): 38%
- kinase still bound, per cent of control (MYO3A (human)): 72%
- kinase still bound, per cent of control (STK39 (human)): 80%
- kinase still bound, per cent of control (MAPK14 (human)): 50%
- kinase still bound, per cent of control (TGFBR2 (human)): 9%
- kinase still bound, per cent of control (STK32A (human)): 64%
- kinase still bound, per cent of control (MAPKAPK5 (human)): 100%
- kinase still bound, per cent of control [2]: 33%
- kinase still bound, per cent of control (SGK3 (human)): 74%
- kinase still bound, per cent of control (PRKCQ (human)): 100%
- kinase still bound, per cent of control (DAPK2 (human)): 12%
- kinase still bound, per cent of control (NEK11 (human)): 80%
- kinase still bound, per cent of control (IGF1R (human)): 100%
- kinase still bound, per cent of control (TIE1 (human)): 93%
- kinase still bound, per cent of control (PRKCE (human)): 65%
- kinase still bound, per cent of control (BMPR1B (human)): 14%
- kinase still bound, per cent of control (ADCK3 (human)): 10%
- kinase still bound, per cent of control (SIK1 (human)): 45%
- kinase still bound, per cent of control (PRKD3 (human)): 42%
- kinase still bound, per cent of control (TESK1 (human)): 100%
- kinase still bound, per cent of control (PLK3 (human)): 33%
- kinase still bound, per cent of control (ICK (human)): 47%
- kinase still bound, per cent of control (CDK3 (human)): 82%
- kinase still bound, per cent of control (MAPK6 (human)): 85%
- kinase still bound, per cent of control (PDPK1 (human)): 90%
- kinase still bound, per cent of control (LIMK1 (human)): 22%
- kinase still bound, per cent of control (MAP2K6 (human)): 46%
- kinase still bound, per cent of control (MTOR (human)): 5%
- kinase still bound, per cent of control (PIK3C2G (human)): 8.2%
- kinase still bound, per cent of control (RIOK2 (human)): 2%
